Test results from US20230293601A1 (SYNGEN BIOTECH CO., LTD., priority 2022, published 2023).

What was measured:
[1] = test system: BALB/c strain mice; experiment: Animal test: body weight, food intake and diarrhea index of mice given 5-FU drug; type: in vivo
Protocol: (§1) A number of 5-week-old male BALB/c strain mice are selected and randomly divided into groups. The experimental period is 18 days. The temperature of rearing environment of the mice in each group is maintained at 22±2° C., with a day and night cycle of 12 hours each.
Body weight and feed intake of the mice in each group are measured and recorded every day during the testing period. The results are shown in FIG. 2 and FIG. 3; after administration of 5-FU drug, the feces of the mice in each group are collected, and the diarrhea index of the mice in each group is evaluated, the results are shown in FIG. 4.

[2] = test system: IL-6; experiment: Concentration of IL-6 in the serum of the mice (commercial kit); type: in vivo; conditions: same regimen, after the test period; FIG. 5
Protocol: as §1, with “each. […] After the test period in embodiment 4, the serum of the mice in each group is collected respectively, and the concentration of IL-6 in the serum of the mice in each group is analyzed with a commercial kit.” for “each.”

[3] = test system: large intestine and small intestine tissues; experiment: Length of large intestine and hematoxylin-eosin staining of small and large intestine tissues of the mice; type: in vivo; conditions: same regimen
Protocol: A number of 5-week-old male BALB/c strain mice are selected and randomly divided into groups. The experimental period is 18 days. The temperature of rearing environment of the mice in each group is maintained at 22±2° C., with a day and night cycle of 12 hours each. […] After the test period in embodiment 4, large intestine and small intestine tissues of the mice in each group are collected, and a length of the large intestine of the mice in each group is measured respectively, the results are shown in FIG. 6; the large intestine and small intestine of the mice in each group are sliced respectively, and stained with hematoxylin-eosin, the results are shown in FIGS. 7A and 7B.

[4] = test system: intestinal microflora; experiment: Microflora analysis of feces of the mice (OTU clustering, heatmap, PLS-DA, metagenomeSeq); type: in vivo
Protocol: as §1
After the test in embodiment 4, the feces of the mice in each group are collected, and sequence analysis of the feces of the mice in each group is outsourced, and then similarity (greater than 97%) OTUs (Operational Taxonomic Units) clustering and species classification analysis are performed. According to the species annotation results, the top 10 species with relative abundance in the mice in each group in the phylum are selected. Wherein fecal sequencing analysis and microflora analysis are known to a person having ordinary skill in the art to which the invention pertains; generally speaking, the fecal samples are firstly performed with DNA extraction and purification, followed by PCR amplification, purification and sequencing, the sequencing results will go through steps of paired sequence splicing (Raw Tags) and filtering to obtain identifiable valid data, and then OTUs clustering and species classification analysis are performed.
According to the species annotation information and abundance information of all the groups in each taxonomic rank, the top 35 genera in abundance are selected, and the group abundance is the average abundance of all the samples in the group. Clustering is performed at the species level to draw a species heatmap of the fecal samples in each group, the results are shown in FIG. 9.
Partial least square discriminant analysis (PLS-DA) is used to analyze the β-diversity of microbial flora in the feces of the mice in each group to determine whether there is a difference in bacterial flora among the microflora of the mice in each group. The microflora data of the mice in each group are analyzed by metagenomeSeq to evaluate specific differences between the microflora of the mice in each group, and the results are shown in FIG. 11A to FIG. 11D.

[5] = test system: chemotherapy-induced diarrhea; conditions: literature, cited from earlier work

NC(=O)CC[C@H](N)C(=O)O [glutamine, L-glutamine]
body weight ([1]; 5-FU 50 mg/kg/day i.p. days 11-13, BC198 5×10^8/day and/or glutamine 1 g/kg/day oral daily, 18 days, FIG. 2): able to maintain their body weight | food intake ([1]; same regimen, FIG. 3, group 5 statement for days 14-15): able to maintain their body weight and food intake | diarrhea index ([1]; same regimen, FIG. 4, compared with 5-FU only (group 2), days 14-15): able to alleviate the diarrhea caused by 5-FU drug | concentration of IL-6 in the serum [2]: significantly lower than that of the mice in group 2 | length of large intestine ([3]; after the test period, FIG. 6): maintain their large intestine lengths | structure of small and large intestine tissues (hematoxylin-eosin) ([3]; FIGS. 7A and 7B, compared with 5-FU only (group 2)): able to mitigate lesion to the structures of the small and large intestines induced by 5-FU drug | relative abundance of Proteobacteria in feces ([4]; FIG. 8, compared with 5-FU only (group 2)): can be reduced | abundances of the microflora associated with diarrhea and enteritis (Escherichia shigella, Odoribacter) ([4]; FIG. 9 heatmap, compared with group 2): lower than that of the mice in group 2 | microflora distribution (PLS-DA, β-diversity) ([4]; FIG. 10, relative to group 2): close to that of the mice in group 2 | relative abundance of UBA1819 ([4]; metagenomeSeq, FIG. 11A, compared with group 2): can not be significantly reduced | relative abundance of Staphylococcus ([4]; metagenomeSeq, FIG. 11B, compared with group 2): can not be significantly reduced | relative abundance of Escherichia shigella ([4]; metagenomeSeq, FIG. 11C, compared with group 2): can be significantly reduced | relative abundance of Muribaculum ([4]; metagenomeSeq, FIG. 11D, compared with group 2 (5-FU only)): significantly reduced | doxifluridine-induced diarrhea [5]: incapable of inhibiting | severity of 5-FU/calciumfolinate-induced stomatitis, nausea and diarrhea [5]: incapable of mitigating severity | duration of chemotherapy-induced diarrhea ([5]; patients): capable of reducing the duration | severity of chemotherapy-induced diarrhea ([5]; patients): incapable of improving its severity
